Data published in patent publication US20250368649A1, “TETRAHYDROPYRIDOPYRIMIDINE PAN-KRAS INHIBITORS” (Mirati Therapeutics, Inc., priority 2022, published 2025).

Tests used:
KRas G12D = KRas G12D (Homo sapiens, UniProt P01116, G12D); experiment: biochemical; conditions: Binding to KRas (IC50 nM) G12D, TR-FRET displacement, KRas G12D
A549 cells = experiment: Inhibition of KRas-mediated phosphorylation of ERK (Cisbio HTRF pERK), A549 cells; format: cell-based; conditions: Homo sapiens; for inhibition at 0.1 µM: single point at 100 nM, 3 hrs compound incubation
PSN1 cells = experiment: Inhibition of KRas-mediated phosphorylation of ERK (Cisbio HTRF pERK), PSN1 cells; format: cell-based; conditions: Homo sapiens, PSN1, 3 h, 3 hour compound incubation, Cisbio pERK HTRF
Procedure, shortened: (§1)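 Day 1: 6,000 cells/well plated, RPMI + 10% FBS.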

H460 cells = experiment: Inhibition of KRas-mediated phosphorylation of ERK (Cisbio HTRF pERK), H460 cells; format: cell-based; conditions: Homo sapiens; for inhibition at 0.1 µM: NCI-H460, single point at 100 nM, 3 hrs compound incubation
ASPC1 cells = experiment: Inhibition of KRas-mediated phosphorylation of ERK (Cisbio HTRF pERK), ASPC1 cells; format: cell-based; conditions: Homo sapiens, AsPC-1 cells; for IC50: ASPC1, 3 h, 3 hr compound incubation, Cisbio pERK HTRF; for inhibition at 0.1 µM: ASPC1, single point at 100 nM, 3 hrs compound incubation
KRas G12V = KRas G12V (Homo sapiens, UniProt P01116, G12V); experiment: biochemical; conditions: Binding to KRas (IC50 nM) G12V, TR-FRET displacement, KRas G12V
KRas G12V, sequence (P01116 1-169 isoform P01116-2 G12V): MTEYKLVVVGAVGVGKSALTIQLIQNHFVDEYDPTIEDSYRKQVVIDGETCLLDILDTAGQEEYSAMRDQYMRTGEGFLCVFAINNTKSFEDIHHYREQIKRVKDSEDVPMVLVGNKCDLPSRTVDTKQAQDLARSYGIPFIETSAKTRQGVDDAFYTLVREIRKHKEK

HCT116 cells = experiment: Inhibition of KRas-mediated phosphorylation of ERK (Cisbio HTRF pERK), HCT116 cells; format: cell-based; conditions: Homo sapiens; for inhibition at 0.1 µM: HCT-116, single point at 100 nM, 3 hrs compound incubation
MKN1 cells = experiment: Inhibition of KRas-mediated phosphorylation of ERK (Cisbio HTRF pERK), MKN1 cells; format: cell-based; conditions: Homo sapiens, MKN-1, 3 hour compound incubation, Cisbio pERK HTRF
Procedure, shortened: as §1

KRas G12R = KRas G12R (Homo sapiens, UniProt P01116, G12R); experiment: biochemical; conditions: Binding to KRas (IC50 nM) G12R, TR-FRET displacement, KRas G12R
KRas G12R, sequence (P01116 1-169 isoform P01116-2 G12R): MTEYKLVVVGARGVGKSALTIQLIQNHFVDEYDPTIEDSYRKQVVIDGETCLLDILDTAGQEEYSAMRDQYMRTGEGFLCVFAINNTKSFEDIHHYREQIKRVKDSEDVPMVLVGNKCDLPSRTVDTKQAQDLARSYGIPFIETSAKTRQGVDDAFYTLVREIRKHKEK

H358 cells = experiment: Inhibition of KRas-mediated phosphorylation of ERK (Cisbio HTRF pERK), H358 cells; format: cell-based; conditions: Homo sapiens; for inhibition at 0.1 µM: NCI-H358, single point at 100 nM, 3 hrs compound incubation
H727 cells = experiment: Inhibition of KRas-mediated phosphorylation of ERK (Cisbio HTRF pERK), H727 cells; format: cell-based; conditions: Homo sapiens; for IC50: NCI-H727, 3 h, 3 hr compound incubation, Cisbio pERK HTRF; for inhibition at 0.1 µM: NCI-H727, single point at 100 nM, 3 hrs compound incubation

KRas G12D, sequence (P01116 1-169 isoform P01116-2 G12D): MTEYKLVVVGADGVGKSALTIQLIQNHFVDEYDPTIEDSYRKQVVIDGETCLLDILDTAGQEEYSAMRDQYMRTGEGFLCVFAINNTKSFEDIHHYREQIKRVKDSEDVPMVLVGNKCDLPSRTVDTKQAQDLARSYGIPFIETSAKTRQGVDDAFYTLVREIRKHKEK

CCc1c(F)ccc2cc(O)cc(N3CCc4c(nc(OC[C@@]56CCCN5C[C@H](F)C6)nc4N4CCCn5nc(C(=O)N6CCC7CC6CN7)cc5C4)C3)c12 (stereo partly drawn) [Example 235, 2,6-diazabicyclo[3.2.1]octan-2-yl(5-(7-(8-ethyl-7-fluoro-3-hydroxynaphthalen-1-yl)-2-(((2R,7aS)-2-fluorohexahydro-1H-pyrrolizin-7a-yl)methoxy)-5,6,7,8-tetrahydropyrido[3,4-d]pyrimidin-4-yl)-5,6,7,8-tetrahydro-4H-pyrazolo[1,5-a][1,4]diazepin-2-yl)methanone]
IC50 (KRas G12D): 2 nM | inhibition at 0.1 µM (A549 cells): 13% | IC50 (PSN1 cells): > 10000 nM | inhibition at 0.1 µM (H460 cells): 2% | IC50 (ASPC1 cells): 52 nM | inhibition at 0.1 µM (ASPC1 cells): 30% | IC50 (KRas G12V): < 2 nM | inhibition at 0.1 µM (HCT116 cells): 5% | IC50 (MKN1 cells): 294 nM | IC50 (KRas G12R): < 2 nM | inhibition at 0.1 µM (H358 cells): 8% | IC50 (H727 cells): 302 nM | inhibition at 0.1 µM (H727 cells): -5%

CCc1c(F)ccc2cc(O)cc(N3CCc4c(nc(OC[C@@]56CCCN5C[C@H](F)C6)nc4N4CCCn5nc(C(=O)N6CC7(CCCN7)C6)cc5C4)C3)c12 [Example 277, (5-(7-(8-ethyl-7-fluoro-3-hydroxynaphthalen-1-yl)-2-(((2R,7aS)-2-fluorohexahydro-1H-pyrrolizin-7a-yl)methoxy)-5,6,7,8-tetrahydropyrido[3,4-d]pyrimidin-4-yl)-5,6,7,8-tetrahydro-4H-pyrazolo[1,5-a][1,4]diazepin-2-yl)(2,5-diazaspiro[3.4]octan-2-yl)methanone]
IC50 (KRas G12D): < 2 nM | inhibition at 0.1 µM (A549 cells): 25% | IC50 (PSN1 cells): > 10000 nM | inhibition at 0.1 µM (H460 cells): 12% | IC50 (ASPC1 cells): 37 nM | IC50 (KRas G12V): < 2 nM | inhibition at 0.1 µM (HCT116 cells): -2% | IC50 (MKN1 cells): 41.7 nM | IC50 (KRas G12R): < 2 nM | inhibition at 0.1 µM (H358 cells): 64% | IC50 (H727 cells): 210 nM

CCc1c(F)ccc2cc(O)cc(N3CCc4c(nc(OC[C@@]56CCCN5C[C@H](F)C6)nc4N4CCCn5nc(C(=O)N6CCC7(CCN7)C6)cc5C4)C3)c12 (stereo partly drawn) [Example 278, (5-(7-(8-ethyl-7-fluoro-3-hydroxynaphthalen-1-yl)-2-(((2R,7aS)-2-fluorohexahydro-1H-pyrrolizin-7a-yl)methoxy)-5,6,7,8-tetrahydropyrido[3,4-d]pyrimidin-4-yl)-5,6,7,8-tetrahydro-4H-pyrazolo[1,5-a][1,4]diazepin-2-yl)(1,6-diazaspiro[3.4]octan-6-yl)methanone]
IC50 (KRas G12D): < 2 nM | inhibition at 0.1 µM (A549 cells): 22% | IC50 (PSN1 cells): > 10000 nM | inhibition at 0.1 µM (H460 cells): -10% | IC50 (ASPC1 cells): 68 nM | IC50 (KRas G12V): < 2 nM | inhibition at 0.1 µM (HCT116 cells): -6% | IC50 (MKN1 cells): 156 nM | IC50 (KRas G12R): < 2 nM | inhibition at 0.1 µM (H358 cells): 12% | IC50 (H727 cells): 659 nM

CCc1c(F)ccc2cc(O)cc(N3CCc4c(nc(OC[C@@]56CCCN5C[C@H](F)C6)nc4N4CCCn5nc(CC(=O)N(C)C)cc5C4)C3)c12 [Example 317, 2-(5-(7-(8-ethyl-7-fluoro-3-hydroxynaphthalen-1-yl)-2-(((2R,7aS)-2-fluorohexahydro-1H-pyrrolizin-7a-yl)methoxy)-5,6,7,8-tetrahydropyrido[3,4-d]pyrimidin-4-yl)-5,6,7,8-tetrahydro-4H-pyrazolo[1,5-a][1,4]diazepin-2-yl)-N,N-dimethylacetamide]
IC50 (KRas G12D): 5 nM | inhibition at 0.1 µM (A549 cells): 12% | IC50 (PSN1 cells): > 10000 nM | inhibition at 0.1 µM (H460 cells): 1% | IC50 (ASPC1 cells): 185 nM | IC50 (KRas G12V): 4 nM | inhibition at 0.1 µM (HCT116 cells): 13% | IC50 (MKN1 cells): 63 nM | IC50 (KRas G12R): 4 nM | inhibition at 0.1 µM (H358 cells): 19% | IC50 (H727 cells): 327 nM

CCc1c(F)ccc2cc(O)cc(N3CCc4c(nc(OC[C@@]56CCCN5C[C@H](F)C6)nc4N4CCCn5nc(C(=O)NC)c(OC)c5C4)C3)c12 [Example 320, 5-(7-(8-ethyl-7-fluoro-3-hydroxynaphthalen-1-yl)-2-(((2R,7aS)-2-fluorohexahydro-1H-pyrrolizin-7a-yl)methoxy)-5,6,7,8-tetrahydropyrido[3,4-d]pyrimidin-4-yl)-3-methoxy-N-methyl-5,6,7,8-tetrahydro-4H-pyrazolo[1,5-a][1,4]diazepine-2-carboxamide]
IC50 (KRas G12D): < 2 nM | IC50 (A549 cells; A549, 3 h, 3 hr compound incubation, Cisbio pERK HTRF): 20 nM | inhibition at 0.1 µM (A549 cells): 90% | IC50 (PSN1 cells): 1420 nM | IC50 (H460 cells; NCI-H460, 3 h, 3 hr compound incubation, Cisbio pERK HTRF): 41 nM | inhibition at 0.1 µM (H460 cells): 56% | IC50 (ASPC1 cells): 5 nM | inhibition at 0.1 µM (ASPC1 cells): 99% | IC50 (KRas G12V): < 2 nM | IC50 (HCT116 cells; HCT-116, 3 h, 3 hr compound incubation, Cisbio pERK HTRF): 214 nM | inhibition at 0.1 µM (HCT116 cells): 17% | IC50 (MKN1 cells): 4.2 nM | IC50 (KRas G12R): < 2 nM | IC50 (H358 cells; NCI-H358, 3 h, 3 hr compound incubation, Cisbio pERK HTRF): 5 nM | inhibition at 0.1 µM (H358 cells): 103% | IC50 (H727 cells): 6 nM | inhibition at 0.1 µM (H727 cells): 70%

CCc1c(F)ccc2cc(O)cc(N3CCc4c(nc(OC[C@@]56CCCN5C[C@H](F)C6)nc4N4CCCn5nc(CNS(=O)(=O)N(C)C)cc5C4)C3)c12 [Example 336, 7-(8-ethyl-7-fluoro-3-hydroxy-1-naphthyl)-2-(((2R,7aS)-2-fluorotetrahydro-1H-pyrrolizin-7a(5H)-yl)methoxy)-4-(2-((dimethylsulfamoyl)amino)methyl-7,8-dihydro-4H-pyrazolo[1,5-a][1,4]diazepin-5(6H)-yl)-6,8-dihydro-5H-pyrido[3,4-d]pyriimidine]
IC50 (KRas G12D): 3 nM | inhibition at 0.1 µM (A549 cells): -24% | IC50 (PSN1 cells): > 10000 nM | inhibition at 0.1 µM (H460 cells): 1% | IC50 (ASPC1 cells): 289 nM | IC50 (KRas G12V): 8 nM | inhibition at 0.1 µM (HCT116 cells): -11% | IC50 (MKN1 cells): 531 nM | IC50 (KRas G12R): 7 nM | inhibition at 0.1 µM (H358 cells): -26% | IC50 (H727 cells): 517 nM

CCc1c(F)ccc2cc(O)cc(N3CCc4c(nc(OC[C@@]56CCCN5C[C@H](F)C6)nc4N4CCCn5nc(P(C)(C)=O)cc5C4)C3)c12 [Example 350, (5-(7-(8-ethyl-7-fluoro-3-hydroxynaphthalen-1-yl)-2-(((2R,7aS)-2-fluorotetrahydro-1H-pyrrolizin-7a(5H)-yl)methoxy)-5,6,7,8-tetrahydropyrido[3,4-d]pyrimidin-4-yl)-5,6,7,8-tetrahydro-4H-pyrazolo[1,5-a][1,4]diazepin-2-yl)dimethylphosphine oxide]
IC50 (KRas G12D): < 2 nM | inhibition at 0.1 µM (A549 cells): 23% | IC50 (PSN1 cells): > 10000 nM | inhibition at 0.1 µM (H460 cells): 44% | IC50 (ASPC1 cells): 105 nM | IC50 (KRas G12V): 3 nM | inhibition at 0.1 µM (HCT116 cells): 10% | IC50 (MKN1 cells): 10.9 nM | IC50 (KRas G12R): < 2 nM | inhibition at 0.1 µM (H358 cells): 76% | IC50 (H727 cells): 178 nM

CCc1c(F)ccc2cc(O)cc(N3CCc4c(nc(OC[C@@]56CCCN5C[C@H](F)C6)nc4N4CCCn5nc(CNC(=O)NC)cc5C4)C3)c12 [Example 352, 1-((5-(7-(8-ethyl-7-fluoro-3-hydroxynaphthalen-1-yl)-2-(((2R,7aS)-2-fluorohexahydro-1H-pyrrolizin-7a-yl)methoxy)-5,6,7,8-tetrahydropyrido[3,4-d]pyrimidin-4-yl)-5,6,7,8-tetrahydro-4H-pyrazolo[1,5-a][1,4]diazepin-2-yl)methyl)-3-methylurea]
IC50 (KRas G12D): < 2 nM | inhibition at 0.1 µM (A549 cells): -15% | IC50 (PSN1 cells): > 10000 nM | inhibition at 0.1 µM (H460 cells): -4% | IC50 (ASPC1 cells): 1820 nM | IC50 (KRas G12V): 2 nM | inhibition at 0.1 µM (HCT116 cells): -2% | IC50 (MKN1 cells): 1110 nM | IC50 (KRas G12R): 2 nM | inhibition at 0.1 µM (H358 cells): -7% | IC50 (H727 cells): 1950 nM

CCc1c(F)ccc2cc(O)cc(N3CCc4c(nc(OC[C@@]56CCCN5C[C@H](F)C6)nc4N4CCCn5nc(CNC(C)=O)cc5C4)C3)c12 [Example 353, N-((5-(7-(8-ethyl-7-fluoro-3-hydroxynaphthalen-1-yl)-2-(((2R,7aS)-2-fluorohexahydro-1H-pyrrolizin-7a-yl)methoxy)-5,6,7,8-tetrahydropyrido[3,4-d]pyrimidin-4-yl)-5,6,7,8-tetrahydro-4H-pyrazolo[1,5-a][1,4]diazepin-2-yl)methyl)acetamide]
IC50 (KRas G12D): < 2 nM | inhibition at 0.1 µM (A549 cells): 26% | IC50 (PSN1 cells): > 10000 nM | inhibition at 0.1 µM (H460 cells): -15% | IC50 (ASPC1 cells): 400 nM | IC50 (KRas G12V): 3 nM | inhibition at 0.1 µM (HCT116 cells): 6% | IC50 (MKN1 cells): 516 nM | IC50 (KRas G12R): 4 nM | inhibition at 0.1 µM (H358 cells): -10% | IC50 (H727 cells): 561 nM
